Results from US20260200926A1, “TREM2 MODULATORS” (Muna Therapeutics ApS, priority 2022, published 2026).

Target: T1, Human TREM2 (Homo sapiens, UniProt Q9NZC2)
T1 construct: expressed in transfected cells
Assay: Human TREM2 activity: cellular phosphorylation of Syk (AlphaLISA SureFire Ultra p-SYK) in HEK293/DAP12+TREM2 stable cell line
Assay type: cell-based
Conditions: for Emax: HEK293, maximal response relative to reference agonist example 1B (remaining examples), read-out: Emax; for EC50: phospho-Syk AlphaLISA signal, HEK293/DAP12+TREM2 cells, concentration giving 50% of maximal response, read-out: EC50
From the text: Human TREM2, in vitro Measurement of Triggering Receptor Expressed on Myeloid Cells 2 activity using cellular phosphorylation of Spleen Tyrosine Kinase (“Syk”) Assay
HEK-293 cells were co-transfected with separate plasmids encoding TREM2 and DAP12 to generate a stable cell line. After antibiotic selection, functional clone pool analysis and two successive limiting dilutions, the final clone “HEK293/DAP12+TREM2” underwent a qPCR analysis and a pharmacological validation.
TREM2 signaling through DAP12 was monitored in the HEK293/DAP12+TREM2 stable cell line by measuring the phosphorylation levels of the Syk kinase using the commercially available AlphaLISA SureFire Ultra p-SYK (Tyr525/526) Assay Kit (PerkinElmer #ALSU-PSYK), based on the Perkin Elmer AlphaScreen/AlphaLISA technology.
Compounds are transferred to the test plate and tested in full dose response, 8 concentrations in quadruplicate data points. Compound serial dilutions were performed at Cybi-Felix instrument in 100% DMSO and the dose response curves were assembled in automated fashion in 384MPT at Hamilton STARlet instrument. All the stock solutions were prepared at 20 mM in 100% DMSO. For compounds testing, the starting concentration was 100 μM, dilution steps 1:6. […] Finally, a 384MPT reformatted for all compounds at 8 concentrations, quadruplicates, was used as “mother to child” process with a CyBi®-Well dispenser in which 1 μL of each compound was moved into a destination plate pre-filled with 65.6 μL of EMEM cell culture medium (BIOWHITTAKER_cat.BE12-125F), thus obtaining 3× concentrated compounds working solution. In columns 1-2 and 23-24 the control wells were added. In particular, dose response curves of a reference control agonist were included in column 1 and 24 as reference control agonist (Reference control agonists used include Human TREM2 polyclonal Antibody AF1828: R&D Systems; Human TREM2 monoclonal Antibody MAB1828: R&D Systems). The dose response curves were tested starting at 30 μM, dilution step 1:6. Both “source” compound plate and “destination” compound plate were barcoded and a relationship between the two plates was thus generated.
HEK293/DAP12+TREM2 cells were cultured in EMEM medium supplemented with IX Penicillin/Streptomycin (BIOWHITTAKER_cat.DE17-602E), ULTRAGLUTAMINE I 200 mM, 10% Fetal Bovine Serum plus antibiotics referred to as “HEK293 Culture Medium”. The day before the experiment, cells were detached by gentle wash with DPBS, followed by 5 min incubation at 37° C. with Trypsin solution. Cells were then diluted in HEK293 Culture Medium without antibiotics, counted and seeded into 384-well poly-D-Lysine coated microplates black/clear bottom (GREINER 781946) at a density of 10,000 cells/well in 25 μL/well by the use of a MATRIX WellMate dispenser. Plates were placed into a humidified cell culture incubator at 37° C. with 5% CO2 until the experimental day. 20-24 hours after seeding mature medium was removed and replaced with 10 μL/well of EMEM cell medium supplemented with 0.1% Pluronic F-68 non-ionic surfactant (Thermofisher, 24040032), referred to as “Assay Buffer”, using the CyBi®-Well instrument. Then 5 μL/well of Assay Buffer containing 3× concentrated test compounds or the reference control agonist (in 0.5% final DMSO concentration) were added to the cells with the CyBi®-Well instrument. Cell plates were incubated for 30 min into a humidified cell culture incubator at 37° C. with 5% CO2·, then the medium was removed by manually discard. 20 μL/well of lysis buffer were dispensed using the CyBi®-Well instrument and plates were incubated for 10 min at room temperature on a plate shaker (350 rpm). Then, 10 μL/well of lysate were transferred to the Alpha plates. The CyBi®-Well instrument was used to dispense 5 μL/well of AlphaLISA Acceptor Bead Solution in IX Immunoassay buffer (Perkin Elmer AL000F). Then the plates were sealed with Heat sealing foil, shaked for 2 minutes (350 rpm) and incubated for 1 hour at room temperature.

T1 sequence (Q9NZC2 19-230): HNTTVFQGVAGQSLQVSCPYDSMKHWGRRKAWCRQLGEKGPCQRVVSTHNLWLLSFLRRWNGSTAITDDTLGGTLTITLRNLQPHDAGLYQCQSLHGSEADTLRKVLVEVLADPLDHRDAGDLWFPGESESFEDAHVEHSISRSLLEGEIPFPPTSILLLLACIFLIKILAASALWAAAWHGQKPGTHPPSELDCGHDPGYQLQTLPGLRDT
T1 sequence (O43914 22-113 partner): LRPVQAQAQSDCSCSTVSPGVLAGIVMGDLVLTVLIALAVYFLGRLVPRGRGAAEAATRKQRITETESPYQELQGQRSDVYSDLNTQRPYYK

Row | SMILES | Emax | EC50
1 | Cc1nc2c(-c3ccc(Cl)cc3F)nc([C@@]34CCO[C@@H](c5cnn(C6CC6)c5)[C@@H]3C4)nc2c(=O)n1C (single isomer, unassigned) [Example 116B] | < 75% | 100 to 1000 nM
2 | Cc1nc2c(-c3ccc(Cl)cc3F)cc(N3C[C@@H](c4cnn(C)c4)OC(C)(C)C3)cc2c(=O)n1C (single isomer, unassigned) [Example 117A] | 75 to 110% | 10 to 100 nM
3 | Cc1nc2c(-c3ccc(Cl)cc3F)cc(N3C[C@H](c4cnn(C)c4)OC(C)(C)C3)cc2c(=O)n1C (single isomer, unassigned) [Example 117B] | < 75% | 100 to 1000 nM
4 | Cc1nc2c(-c3ccc(C(F)(F)F)cc3F)cc([C@@H]3CCO[C@H](c4cnn(C5CC5)c4)C3)cc2c(=O)n1C (single isomer, unassigned) [Example 118A] | 75 to 110% | 10 to 100 nM
5 | Cc1nc2c(-c3ccc(C(F)(F)F)cc3F)cc([C@H]3CCO[C@@H](c4cnn(C5CC5)c4)C3)cc2c(=O)n1C (single isomer, unassigned) [Example 118B] | < 75% | > 1000 nM
6 | Cc1nc2c(-c3ccc(Cl)cc3F)cc([C@@H]3CCO[C@H](c4cnn(C5CC5)c4)C3)cc2c(=O)n1C (single isomer, unassigned) [Example 119A] | < 75% | 100 to 1000 nM
7 | Cc1nc2c(-c3ccc(Cl)cc3F)cc([C@H]3CCO[C@@H](c4cnn(C5CC5)c4)C3)cc2c(=O)n1C (single isomer, unassigned) [Example 119B] | 75 to 110% | 1 to 10 nM
8 | Cc1nc2c(-c3ccc(F)cc3F)nc([C@@H]3CCO[C@H](c4cnn(C5CC5)c4)C3)nc2c(=O)n1C (single isomer, unassigned) [Example 120A] | < 75% | > 1000 nM
9 | Cc1nc2c(-c3ccc(F)cc3F)nc(N3C[C@@H](c4cnn(C)c4)OC(C)(C)C3)nc2c(=O)n1C (single isomer, unassigned) [Example 121A] | < 75% | 100 to 1000 nM
10 | Cc1nc2c(-c3ccc(F)cc3F)nc(N3C[C@H](c4cnn(C)c4)OC(C)(C)C3)nc2c(=O)n1C (single isomer, unassigned) [Example 121B] | < 75% | > 1000 nM
11 | Cc1cc([C@@H]2CN(c3nc(-c4ccc(F)cc4F)c4nc(C)n(C)c(=O)c4n3)CCO2)ccn1 (single isomer, unassigned) [Example 122A] | 75 to 110% | 1 to 10 nM
12 | Cc1cc([C@H]2CN(c3nc(-c4ccc(F)cc4F)c4nc(C)n(C)c(=O)c4n3)CCO2)ccn1 (single isomer, unassigned) [Example 122B] | < 75% | 100 to 1000 nM
13 | Cc1cc([C@@H]2CN(c3nc(-c4cc(F)c(F)cc4F)c4nc(C)n(C)c(=O)c4n3)CCO2)ccn1 (single isomer, unassigned) [Example 123A] | > 110% | 1 to 10 nM
14 | Cc1cc([C@H]2CN(c3nc(-c4cc(F)c(F)cc4F)c4nc(C)n(C)c(=O)c4n3)CCO2)ccn1 (single isomer, unassigned) [Example 123B] | 75 to 110% | 10 to 100 nM
15 | Cc1cc([C@@H]2CN(c3nc(-c4ccc(C(F)(F)F)cc4F)c4nc(C)n(C)c(=O)c4n3)CC(C)(C)O2)ccn1 (single isomer, unassigned) [Example 124A] | 75 to 110% | 10 to 100 nM
16 | Cc1cc([C@H]2CN(c3nc(-c4ccc(C(F)(F)F)cc4F)c4nc(C)n(C)c(=O)c4n3)CC(C)(C)O2)ccn1 (single isomer, unassigned) [Example 124B] | 75 to 110% | 1 to 10 nM
17 | Cc1nc2c(-c3ccc(Cl)cc3F)nc(N3CCO[C@@H](c4cnn(C)c4)C3)cc2c(=O)n1C (single isomer, unassigned) [Example 125A] | 75 to 110% | 10 to 100 nM
18 | Cc1nc2c(-c3ccc(Cl)cc3F)nc(N3CCO[C@H](c4cnn(C)c4)C3)cc2c(=O)n1C (single isomer, unassigned) [Example 125B] | < 75% | 10 to 100 nM
19 | Cc1nc2c(-c3ccc(C(F)(F)F)cc3F)nc(N3CCO[C@@H](c4cnn(C)c4)C3)cc2c(=O)n1C (single isomer, unassigned) [Example 126A] | 75 to 110% | 1 to 10 nM
20 | Cc1nc2c(-c3ccc(C(F)(F)F)cc3F)nc(N3CCO[C@H](c4cnn(C)c4)C3)cc2c(=O)n1C (single isomer, unassigned) [Example 126B] | < 75% | 100 to 1000 nM

Further lines, results first:

Row | Emax | EC50 | SMILES
21 | < 75% | 100 to 1000 nM | Cc1nc2c(-c3ccc(C(F)(F)F)nc3)nc(N3CCO[C@@H](c4cnn(C)c4)C3)cc2c(=O)n1C (single isomer, unassigned) [Example 127A]
22 | < 75% | > 1000 nM | Cc1nc2c(-c3ccc(C(F)(F)F)nc3)nc(N3CCO[C@H](c4cnn(C)c4)C3)cc2c(=O)n1C (single isomer, unassigned) [Example 127B]
23 | 75 to 110% | 100 to 1000 nM | Cc1cc([C@H]2CN(c3cc4c(=O)n(C)c(C)nc4c(-c4ccc(Cl)cc4F)n3)CC3(CC3)O2)ccn1 (single isomer, unassigned) [Example 128B]
24 | 75 to 110% | 10 to 100 nM | Cc1nc2c(-c3ccc(F)cc3F)nc(N3CCO[C@@H](c4cnn(C)c4)C3)cc2c(=O)n1C (single isomer, unassigned) [Example 129A]
25 | < 75% | 10 to 100 nM | Cc1nc2c(-c3ccc(F)cc3F)nc(N3CCO[C@H](c4cnn(C)c4)C3)cc2c(=O)n1C (single isomer, unassigned) [Example 129B]
26 | < 75% | 10 to 100 nM | Cc1nc2c(-c3cc(F)c(F)cc3F)nc(N3CCO[C@@H](c4cnn(C)c4)C3)cc2c(=O)n1C (single isomer, unassigned) [Example 130A]
27 | < 75% | 100 to 1000 nM | Cc1nc2c(-c3cc(F)c(F)cc3F)nc(N3CCO[C@H](c4cnn(C)c4)C3)cc2c(=O)n1C (single isomer, unassigned) [Example 130B]
28 | 75 to 110% | 1 to 10 nM | Cc1nc2c(-c3ccc(Cl)cc3F)nc(N3CCO[C@H](c4cnn(C5CC5)c4)C3)cc2c(=O)n1C (single isomer, unassigned) [Example 131A]
29 | < 75% | 100 to 1000 nM | Cc1nc2c(-c3ccc(Cl)cc3F)nc(N3CCO[C@@H](c4cnn(C5CC5)c4)C3)cc2c(=O)n1C (single isomer, unassigned) [Example 131B]
30 | 75 to 110% | 1 to 10 nM | Cc1nc2c(-c3ccc(C(F)(F)F)cc3F)nc(N3CCO[C@H](c4cnn(C5CC5)c4)C3)cc2c(=O)n1C (single isomer, unassigned) [Example 132A]
31 | < 75% | 100 to 1000 nM | Cc1nc2c(-c3ccc(C(F)(F)F)cc3F)nc(N3CCO[C@@H](c4cnn(C5CC5)c4)C3)cc2c(=O)n1C (single isomer, unassigned) [Example 132B]
32 | 75 to 110% | 10 to 100 nM | Cc1nc2c(-c3cc(F)c(F)cc3F)nc(N3CCO[C@H](c4cnn(C5CC5)c4)C3)cc2c(=O)n1C (single isomer, unassigned) [Example 133A]
33 | < 75% | 100 to 1000 nM | Cc1nc2c(-c3cc(F)c(F)cc3F)nc(N3CCO[C@@H](c4cnn(C5CC5)c4)C3)cc2c(=O)n1C (single isomer, unassigned) [Example 133B]
34 | 75 to 110% | 10 to 100 nM | Cc1nc2c(-c3ccc(C(F)(F)F)cc3F)nc(N3C[C@@H](c4cnn(C)c4)OC(C)(C)C3)cc2c(=O)n1C (single isomer, unassigned) [Example 134A]
